pKi: −log10 of the molar value. Where two headings read alike, the source gives them in different places.
Columns and labels:
BCL2 WT = BCL2 WT (Homo sapiens (Human), UniProt P10415); assay: TR-FRET competitive binding assay, BCL2 WT
Procedure, shortened: (§1)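 Terbium-labelled N-terminal Halo-fusion BCL2 or BCLXL (E. coli), 0.5 nM, competed against fluorescein-labelled PUMA peptide (2 or 20 nM) for 2 h at 23° C in 50 mM Hepes pH 7.5, 150 mM NaCl, 5% DMSO. TR-FRET 520/495 nm ratio gave IC50 by four-parameter fit; Ki derived from IC50.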

BCL2 D103Y = BCL2 D103Y (Homo sapiens, UniProt P10415, D103Y); assay: TR-FRET competitive binding assay, BCL2 D103Y; details: Ki determined from IC50, read-out: TR_FRET EKI_Bcl2 D103Y
Procedure, shortened: as §1

KMS-12-PE Bcl-2 WT = assay: In vitro cytotoxicity CellTiter-Glo 48 h, KMS-12-PE Bcl-2 WT; type: cell-based; details: Homo sapiens, KMS-12-PE, C50 = concentration needed to reach 50% of the cellular viability
Procedure, shortened: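 KMS-12-PE myeloma cells lentivirally transduced with Bcl-2 WT or G101V (TagRFP-sorted), exposed to compound 11-point dose-response for 48 h at 37 °C, 5% CO2. Viability read by CellTiter-Glo ATP luminescence; C50 is the concentration giving 50% cellular viability.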

BCLXL WT = BCLXL WT (Homo sapiens (Human), UniProt Q07817); assay: TR-FRET competitive binding assay, BCLXL WT; details: for pKi: BCLXL WT, Ki determined from IC50, read-out: TR_FRET EKI BclxL; for TR_FRET EKI BCLxL/WT selectivty ratio: ratio Ki BCLxL / Ki BCL2 WT; for TR_FRET EKI BCLxL/WT selectivty: ratio of Ki BCLxL to BCL2 WT
BCLXL WT, sequence (Q07817 other isoform, or with tags, fused parts or gaps): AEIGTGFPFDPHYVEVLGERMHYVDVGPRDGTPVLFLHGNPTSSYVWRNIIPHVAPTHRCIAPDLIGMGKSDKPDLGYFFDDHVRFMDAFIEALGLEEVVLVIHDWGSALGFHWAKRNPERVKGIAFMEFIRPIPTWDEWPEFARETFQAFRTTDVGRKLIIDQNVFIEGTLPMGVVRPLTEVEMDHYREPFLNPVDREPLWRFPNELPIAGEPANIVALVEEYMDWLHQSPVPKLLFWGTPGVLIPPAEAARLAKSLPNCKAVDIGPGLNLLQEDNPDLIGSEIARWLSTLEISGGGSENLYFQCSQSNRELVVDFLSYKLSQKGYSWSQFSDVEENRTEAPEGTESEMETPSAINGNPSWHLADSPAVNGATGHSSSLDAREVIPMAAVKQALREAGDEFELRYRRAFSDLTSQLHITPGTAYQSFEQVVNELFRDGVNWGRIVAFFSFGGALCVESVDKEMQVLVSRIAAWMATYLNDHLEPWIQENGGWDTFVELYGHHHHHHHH
Procedure, shortened: as §1

BCL2 G101V [1] = assay: TR-FRET competitive binding assay, BCL2 G101V; parameters: species or system human; details: for TR_FRET EKI G101V/WT selectivty ratio: ratio Ki BCL2 G101V / Ki BCL2 WT; for TR_FRET EKI G101V/WT selectivty: ratio of Ki BCL2 G101V to BCL2 WT
Procedure, shortened: as §1

BCL2 G101V [2] = target: BCL2 G101V (Homo sapiens, UniProt P10415, G101V); assay: TR-FRET competitive binding assay, BCL2 G101V; details: BCL2 G101V; Ki determined from IC50; read-out: TR_FRET EKI_Bcl2 G101V
Procedure, shortened: as §1

[3] = Ki determined from IC50, read-out: TR_FRET EKI_Bcl2 WT
[4] = Ki determined from IC50, read-out: TR_FRET EKI_Bcl2

| Structure (SMILES) | pKi (BCL2 WT; [3]) | pKi (BCL2 D103Y) | pKi (BCLXL WT) | TR_FRET EKI BCLxL/WT selectivty ratio (BCLXL WT) | TR_FRET EKI G101V/WT selectivty ratio (BCL2 G101V [1]) | pKi (BCL2 G101V [2]) | pKi (BCL2 WT; [4]) | TR_FRET EKI BCLxL/WT selectivty (BCLXL WT) | TR_FRET EKI G101V/WT selectivty (BCL2 G101V [1]) | IC50 (KMS-12-PE Bcl-2 WT) [µM] |
| --- | --- | --- | --- | --- | --- | --- | --- | --- | --- | --- |
| COc1ncc(N(C(=O)c2cc(-c3cc4c(cc3C(=O)N3Cc5ccccc5C[C@H]3C)CN(C(=O)Cc3ccc(OCCN(C)C)cc3F)CC4)n(C)c2C)c2ccccc2)cc1F [Example 219, 5-[2-[2-[4-[2-(dimethylamino)ethoxy]-2-fluoro-phenyl]acetyl]-7-[(3R)-3-methyl-3,4-dihydro-1H-isoquinoline-2-carbonyl]-3,4-dihydro-1H-isoquinolin-6-yl]-N-(5-fluoro-6-methoxy-3-pyridyl)-1,2-dimethyl-N-phenyl-pyrrole-3-carboxamide] | 10.30 | 9.89 | 8.54 | 57.8 | 89.8 | 8.34 |  |  |  | 0.131 |
| Cc1c(C(=O)N(c2ccccc2)c2ccnn2C)cc(-c2cc3c(cc2C(=O)N2Cc4ccccc4C[C@H]2C)CN(C(=O)Cc2ccc(OCCN4CCOCC4)cc2)CC3)n1C [Example 220, 1,2-dimethyl-5-[7-[(3R)-3-methyl-3,4-dihydro-1H-isoquinoline-2-carbonyl]-2-[2-[4-(2-morpholinoethoxy)phenyl]acetyl]-3,4-dihydro-1H-isoquinolin-6-yl]-N-(2-methylpyrazol-3-yl)-N-phenyl-pyrrole-3-carboxamide] | 9.89 | 9.43 | 7.37 | 325.6 | 109.9 | 7.84 |  |  |  | 0.0907 |
| Cc1nn(C)cc1N(C(=O)c1cc(-c2cc3c(cc2C(=O)N2Cc4ccccc4C[C@H]2C)CN(C(=O)Cc2ccc(OCCN(C)C)cc2)CC3)n(C)c1C)c1ccccc1 [Example 221, 5-[2-[2-[4-[2-(dimethylamino)ethoxy]phenyl]acetyl]-7-[(3R)-3-methyl-3,4-dihydro-1H-isoquinoline-2-carbonyl]-3,4-dihydro-1H-isoquinolin-6-yl]-N-(1,3-dimethylpyrazol-4-yl)-1,2-dimethyl-N-phenyl-pyrrole-3-carboxamide] | 9.62 | 9.28 | 7.55 | 118.0 | 79.5 | 7.72 |  |  |  | 0.121 |
| Cc1nn(C)cc1N(C(=O)c1cc(-c2cc3c(cc2C(=O)N2Cc4ccccc4C[C@H]2C)CN(C(=O)Cc2ccc(OCCN(C)C)cc2F)CC3)n(C)c1C)c1ccccc1 [Example 222, 5-[2-[2-[4-[2-(dimethylamino)ethoxy]-2-fluoro-phenyl]acetyl]-7-[(3R)-3-methyl-3,4-dihydro-1H-isoquinoline-2-carbonyl]-3,4-dihydro-1H-isoquinolin-6-yl]-N-(1,3-dimethylpyrazol-4-yl)-1,2-dimethyl-N-phenyl-pyrrole-3-carboxamide] | 10.05 | 9.72 | 7.90 | 138.9 | 69.6 | 8.20 |  |  |  | 0.055 |
| Cc1c(C(=O)N(c2ccccc2)c2cc(F)cc(C#N)c2)cc(-c2cc3c(cc2C(=O)N2Cc4ccccc4C[C@H]2C)CN(C(=O)Cc2ccc(OCCN4CCOCC4)cc2)CC3)n1C [Example 226, N-(3-cyano-5-fluoro-phenyl)-1,2-dimethyl-5-[7-[(3R)-3-methyl-3,4-dihydro-1H-isoquinoline-2-carbonyl]-2-[2-[4-(2-morpholinoethoxy)phenyl]acetyl]-3,4-dihydro-1H-isoquinolin-6-yl]-N-phenyl-pyrrole-3-carboxamide] |  | 9.12 | 7.38 |  |  | 8.08 | 9.59 | 160.8 | 32.2 | 0.0365 |
| Cc1c(C(=O)N(c2ccccc2)c2cc(F)cc(C#N)c2)cc(-c2cc3c(cc2C(=O)N2Cc4ccccc4C[C@H]2C)CN(C(=O)Cc2ccc(OCCN4CCOCC4)cc2F)CC3)n1C [Example 227, N-(3-cyano-5-fluoro-phenyl)-5-[2-[2-[2-fluoro-4-(2-morpholinoethoxy)phenyl]acetyl]-7-[(3R)-3-methyl-3,4-dihydro-1H-isoquinoline-2-carbonyl]-3,4-dihydro-1H-isoquinolin-6-yl]-1,2-dimethyl-N-phenyl-pyrrole-3-carboxamide] |  | 9.48 | 7.43 |  |  | 7.97 | 9.77 | 219.1 | 63.7 | 0.0254 |
| Cc1c(C(=O)N(c2ccc(O)cc2)c2cnn(C)c2)cc(-c2cc3c(cc2C(=O)N2Cc4ccccc4C[C@H]2C)CN(C(=O)Cc2ccc(OCCN4CCOCC4)cc2F)CC3)n1C [Example 233] |  | 10.10 | 8.56 |  |  | 9.49 | 10.41 | 70.3 | 8.2 | 0.00694 |
| Cc1c(N(C(=O)c2cc(-c3cc4c(cc3C(=O)N3Cc5ccccc5C[C@H]3C)CN(C(=O)Cc3ccc(OCCN5CCOCC5)cc3F)CC4)n(C)c2C)c2ccccc2)cc(C#N)n1C [Example 234] |  | 9.80 | 8.43 |  |  | 9.12 | 10.07 | 42.8 | 8.9 | 0.00221 |

Now from value to compound, other results behind:

| pKi (BCL2 WT; [3]) | pKi (BCL2 D103Y) | pKi (BCLXL WT) | TR_FRET EKI BCLxL/WT selectivty ratio (BCLXL WT) | TR_FRET EKI G101V/WT selectivty ratio (BCL2 G101V [1]) | pKi (BCL2 G101V [2]) | pKi (BCL2 WT; [4]) | TR_FRET EKI BCLxL/WT selectivty (BCLXL WT) | TR_FRET EKI G101V/WT selectivty (BCL2 G101V [1]) | Structure (SMILES) | IC50 (KMS-12-PE Bcl-2 WT) [µM] |
| --- | --- | --- | --- | --- | --- | --- | --- | --- | --- | --- |
|  | 10.24 | 8.77 |  |  | 9.28 | 10.49 | 53.1 | 16.3 | Cc1c(C(=O)N(c2ccccc2)c2cnn(C)c2)cc(-c2cc3c(cc2C(=O)N2Cc4ccccc4C[C@H]2C)CN(C(=O)Cc2ccc(OCCC4CCN(C)CC4)cc2)CC3)n1C [Example 237] | 0.007 |
|  | 9.89 | 8.55 |  |  | 8.97 | 10.19 | 43.8 | 16.7 | Cc1c(C(=O)N(c2ccccc2)c2cnn(C(F)F)c2)cc(-c2cc3c(cc2C(=O)N2Cc4ccccc4C[C@H]2C)CN(C(=O)Cc2ccc(OCCC4CCN(C)CC4)cc2)CC3)n1C [Example 238] | 0.00907 |
|  | 9.88 | 8.37 |  |  | 8.28 | 10.18 | 65.2 | 79.5 | Cc1c(C(=O)N(c2ccccc2)c2cnn(C)c2)cc(-c2cc3c(cc2C(=O)N2Cc4ccccc4C[C@H]2C)CN(C(=O)Cc2ccc(OCCN(C)C)cc2F)CC3)n1C [Example 239] | 0.0128 |
|  | 9.82 | 7.43 |  |  | 8.17 | 9.94 | 323 | 57.8 | Cc1c(C(=O)N(c2ccccc2)c2cnn(C)c2)cc(-c2cc3c(cc2C(=O)N2Cc4ccccc4C[C@H]2CN2CCCCC2)CN(C(=O)Cc2ccc(OCCC4CCOCC4)cc2)CC3)n1C [Example 240] | 0.0446 |
|  | 9.19 | 7.28 |  |  | 7.41 | 9.61 | 216 | 160.7 | Cc1c(C(=O)N(c2ccccc2)c2cnn(C(F)F)c2)cc(-c2cc3c(cc2C(=O)N2Cc4ccccc4C[C@H]2CN2CCCCC2)CN(C(=O)Cc2ccc(OCCC4CCOCC4)cc2)CC3)n1C [Example 241] | 0.0586 |
